Experimental data reported in PMC7536072, “Molecular and functional characterization of somatostatin-type signalling in a deuterostome invertebrate” (Open Biology, 2020).
“Also recorded” adds a separate entry of the source. Bridges are numbered along the chain shown (N, C = ends). Where no end group is shown, it is not given here.

Assays:
[1] = test system: CHO-K1 cells transfected with an empty pcDNA3.1(+) vector; test: luminescence control assay, CHO-K1 cells transfected with empty vector; assay type: cell-based, Chinese hamster; conditions: 10^-12 to 10^-5 M (figure S12), 0.1 % Triton X-100 = 100%
Protocol: In order to characterize the candidate SS-type receptors, a G-protein-dependent receptor activation assay was employed. Chinese hamster ovary (CHO)-K1 cells stably overexpressing the calcium-sensitive bioluminescent reporter GFP-aequorin fusion protein (G5A) were used as a heterologous expression system. Plasmids containing A. rubens SS-type receptor cDNAs were co-transfected with the promiscuous human Gα16, which is widely used for receptor deorphanization assays. […] After 3 h incubation, a fixed volume of cells was injected sequentially into each well containing different concentrations of peptides using a FLUOstar Omega Plate Reader (BMG LABTECH, Ortenberg, Germany). Luminescence values were recorded over a 35 s period after injection. The total luminescence of each well over the 35 s period was calculated and normalized to the maximum value obtained in each experiment (100% activation) and to the value obtained with the vehicle media (0% activation). […] EC50 values were calculated from dose–response curves using Prism 6. The luminescence responses triggered by 10^−5 M ArSS1, 10^−5 M ArSS2 and vehicle media were analysed by one-way ANOVA using Bonferroni's multiple comparisons post hoc test in Prism 6. […]

ArSSR1 = test: GFP-aequorin luminescence receptor activation assay, CHO-K1 cells, ArSSR1 + Gα16; assay type: cell-based, Asterias rubens
[2] = test system: tube foot preparations from A. rubens; test: in vitro relaxation of tube foot preparations; set-up: species or system Asterias rubens
Protocol: Synthetic ArSS2 ([…], with a disulfide bridge between the cysteine residues) was custom synthesized (Peptide Protein Research Ltd, Fareham, UK) to enable testing of its pharmacological effects on in vitro preparations of organs/muscles from A. rubens. ArSS2 was tested for its in vitro effects on the contractility of tube foot, apical muscle and cardiac stomach preparations from at least six different specimens of A. rubens. Individual tube foot preparations were dissected from starfish arms with their corresponding ampulla intact. […] Data collected from PowerLab were visualized as traces and analysed using LabChart (v. 8.0.7) software installed on a laptop computer (Lenovo E540, Windows 7 Professional). […]
To examine the effects of ArSS2 on tube foot and cardiac stomach preparations, 10^−6 M acetylcholine (ACh) or artificial seawater (ASW) containing 30 mM added KCl was used to induce contraction of these preparations, respectively. Once a stable baseline contracted state was achieved, synthetic ArSS2 was added into the organ bath to sequentially achieve final concentrations in the range of 10^−10 to 10^−6 M. For these experiments, the contracting effect of 10^−6 M ACh or ASW containing 30 mM added KCl was defined as 100% and the relaxing effects of ArSS2 were then calculated as a percentage reversal of the 100% contracted state.

“RAKNARCMADFWKGRGLVDC (disulfide 7-20 (inferred)) [ArSS2]” was tested, and the “luminescence response in cells with empty vector” value [1] was “do not trigger luminscence; also recorded: Neither ArSS1 nor ArSS2 elicited responses”, the EC50 (ArSSR1; ArSSR1 + Gα16 in CHO-K1 cells expressing GFP-aequorin (G5A), peptide 10^−21 to 10^−4 M, luminescence over 35 s, mean of at least three independent experiments, three repeats each, read-out: half-maximal response concentration (EC50)) was 0.088 nM and the “luminescence compared with control” value (ArSSR1; ArSSR1, 10^−5 M, vs BSA media (control) and, for ArSS2, vs ArSS1, one-way ANOVA, Bonferroni) was “significantly higher than the luminescence in cells exposed to ArSS1 or BSA media (control)”. For the same sequence, the triggering of luminescence (ArSSR1; ArSSR1, 10^−21 to 10^−4 M) was “caused dose-dependent luminescence”, the “efficacy compared between receptors” value (ArSSR1; ArSSR1 and ArSSR2 vs ArSSR3, 10^−5 M) was “higher for ArSSR1 and ArSSR2 than for ArSSR3” and the “reversal of ACh-induced tube foot contraction” value ([2]; 10^−6 M, contraction induced by 10^−6 M acetylcholine = 100%, artificial seawater, approximately 11°C, mean ± s.e.m., n = 6) was 91% ± 13%. The “relaxation of tube foot preparations” value ([2]; pre-contracted with 10^−6 M ACh, tested 10^−10 to 10^−6 M) was “dose-dependent relaxation of tube foot preparations at concentrations between 10^−9 and 10^−6 M”.
